Like-named read-outs stand apart in the source and are kept apart here.
Experiments:
[1] = biological target: T1, human DNA topoisomerase II beta (Topo2β) (Homo sapiens, UniProt Q02880); assay: Topo2β polymerase inhibition assay (ELISA), Hep3B; format: cell-based; set-up: concentration or dose not given beside the values; conditions: against Hep3B cell line
Method: (§1) This assay was employed to predict the inhibitory effects of novel compounds on Topo2β. […] The melting points were determined using a Stuart apparatus, and the values given are uncorrected. IR spectra were recorded using a Shimadzu IR 4000s spectrophotometer (KBr, cm^−1) at the College of Pharmaceutical Sciences and Drug Manufacturing, Misr University for Science and Technology, Egypt. ^1H NMR spectra were recorded using a Bruker 400 MHz (Bruker Corp., Billerica, MA, USA) spectrophotometer, Faculty of Pharmacy, Cairo University, Cairo, Egypt and the Centre of Drug Discovery Research & Development, Faculty of Pharmacy, Ain shams University, and a Jeol 500 MHz spectrophotometer at the National Research Center. Chemical shifts were recorded in ppm on a δ scale, coupling constants (J) were given in Hz and peak multiplicities are designed as follows: s, singlet; d, doublet; t, triplet; m, multiplet. ^13C NMR spectra were recorded using a Bruker 100 MHz spectrophotometer, Faculty of Pharmacy, Cairo University and the Centre of Drug Discovery Research & Development, Faculty of Pharmacy, Ain shams University, and a Jeol 500 MHz spectrophotometer at the National Research Center. Chemical shifts were recorded in ppm on a δ scale. Microanalyses for C, H, and N were carried out at the Regional Center for Mycology and Biotechnology, Faculty of Pharmacy, Al-Azhar University. C, H, and N analysis values were accepted within the range of ± 0.4 of the calculated percentages. […] The used eluting system was methanol : hexane with a ratio of 9.5/0.5 respectively. Scientific microwave MAS-II was used under 300 W microwave irradiation, operating at 80 °C. The evaluation of the cytotoxic activity was performed at VACSERA, Giza, Egypt, using MCF-7, Hep3B and leukemia SR cell lines. Enzyme assay, cell cycle analysis, apoptosis and caspase-3 assay were carried out at VACSERA, Giza, Egypt using an SEB870Hu 96 Tests Enzyme-linked Immunosorbent Assay Kit for Topoisomerase II Beta.
This assay employs a quantitative sandwich enzyme immunoassay technique. […] Antibody specific for Topo2β was pre-coated onto a microplate. Standards and samples were pipetted into the wells and any Topo2β present was bound by the immobilized antibody. After removing any unbound substances, a biotin-conjugated antibody specific for Topo2β was added to the wells. After washing, avidin-conjugated Horseradish Peroxidase (HP) was added to the wells. Following washing to remove any unbound avidin–enzyme reagent, a substrate solution was added to the wells and color develops in proportion to the amount of Topo2β bound in the initial step. The color development was stopped, and the intensity of the color was measured. […] The sensitivity of this assay or lower limit of detection (LLD) is defined as the lowest protein concentration that could be differentiated from zero. The mean OD value of 20 replicates of the zero standard was determined and added to their three standard deviations.[64]

[2] = in vitro; conditions: human, THLE2 normal liver cells
Method: The following normal cell lines were selected: normal breast MCF-10a, normal liver THLE2 and normal lymphocyte PCS-800-011. […] Moreover, the toxic effect of representative target compounds was evaluated on normal breast (MCF10a), normal liver (THLE2) and normal lymphocyte (PCS-800-011) cell lines using an MTT assay. […] The cells were cultured using Dulbecco's modified Eagle's medium (DMEM) (Invitrogen/Life Technologies) supplemented with 10% fetal bovine serum (FBS) (Hyclone), 10 μg mL^−1 of insulin (Sigma), and 1% penicillin–streptomycin. All chemicals and reagents were purchased from Sigma-Aldrich or Invitrogen. For 24 hours before to the MTT experiment, plate cells (densities of 1.2–1.8 × 10 000 cells per well) were layered in a 96-well plate containing 100 μL of the tested chemical per well and 100 μL of full growth media.
(§2) The culture medium was transferred to a centrifuge tube. […] Then 2.0 to 3.0 mL of Trypsin EDTA solution was added to the flask, and the cells were observed using an inverted microscope until the cell layer became dispersed (usually within 5–15 min). After that, 6.0 to 8.0 mL of complete growth medium was added and the cells were aspirated by gently pipetting. The cell suspension was transferred to the centrifuge tube with the medium and cells from step 1 and centrifuged at approximately 125 g for 5–10 min. The supernatant was discarded. The cell pellet was re-suspended in a fresh growth medium. Appropriate aliquots of the cell suspension were added to new culture vessels.
(§3) For the best results, the cells in the log phase of growth should be employed and the final cell number should not exceed 10^6 cells per cm^2. Each test should include a blank containing a complete medium without cells. Cultures from the incubator were transferred into a laminar flow hood or other sterile work area. […] Reconstituted MTT was added in an amount equal to 10% of the culture medium volume. Cultures were returned to the incubator for 2–4 h depending on the cell type and maximum cell density. An incubation period of 2 h is generally adequate but may be lengthened for low cell densities or cells with lower metabolic activity. The incubation times should be consistent when making comparisons. […] Occasionally, especially in dense cultures, pipetting up and down may be required to completely dissolve the MTT formazan crystals. The absorbance was spectrophotometrically measured at a wavelength of 570 nm. The background absorbance of multiwell plates was measured at 690 nm and subtracted from the 450 nm measurement. Tests performed in multiwell plates might be read using an appropriate type of plate reader or the contents of individual wells might be transferred to appropriate size cuvettes for spectrophotometric measurement.

[3] = test system: leukemia (L-SR) cell line; assay: MTT cytotoxicity assay, L-SR; conditions: 48 h, read-out: Cytotoxicity IC50 L-SR
Method: (§4) The newly synthesized compounds were evaluated for their in vitro growth inhibition of three human tumor cell lines representing different tumor types, namely, breast adenocarcinoma (MCF-7), liver hepatocellular carcinoma (Hep3B) and leukemia-SR. […] The breast tumor cell line (MCF-7), hepatic tumor cell line (Hep3B) and leukemia-SR cell line were obtained from American Type Culture Collection. The cells were cultured using Dulbecco's modified Eagle's medium (DMEM) (Invitrogen/Life Technologies) supplemented with 10% fetal bovine serum (FBS) (Hyclone), 10 μg mL^−1 of insulin (Sigma), and 1% penicillin–streptomycin. […] For 24 hours before to the MTT experiment, plate cells (densities of 1.2–1.8 × 10 000 cells per well) were layered in a 96-well plate containing 100 μL of the tested chemical per well and 100 μL of full growth media.
as §2, §3

[4] = test system: human breast cancer (MCF-7) cell line; assay: MTT cytotoxicity assay, MCF-7; conditions: read-out: Cytotoxicity IC50 MCF-7
Method: as §4, §2, §3

[5] = test system: human liver cancer (Hep3B) cell line; assay: MTT cytotoxicity assay, Hep3B; conditions: 48 h, read-out: Cytotoxicity IC50 Hep3B
Method: as §4, §2, §3

[6] = biological target: T1, human DNA topoisomerase II beta (Topo2β); assay: Topo2β polymerase inhibition assay (ELISA), L-SR; format: cell-based; set-up: endogenous in cells; host or cells: MCF-7 (A4), Hep3B (A5), L-SR (A6) human cancer cell lines; conditions: against L-SR cell line
Method: as §1
This assay employs a quantitative sandwich enzyme immunoassay technique. […] Antibody specific for Topo2β was pre-coated onto a microplate. Standards and samples were pipetted into the wells and any Topo2β present was bound by the immobilized antibody. After removing any unbound substances, a biotin-conjugated antibody specific for Topo2β was added to the wells. After washing, avidin-conjugated Horseradish Peroxidase (HP) was added to the wells. […] The color development was stopped, and the intensity of the color was measured. […] The mean OD value of 20 replicates of the zero standard was determined and added to their three standard deviations.[64]

[7] = MCF-7 cell line, MTT assay, 48 h

T1 sequence (Q02880 whole entry): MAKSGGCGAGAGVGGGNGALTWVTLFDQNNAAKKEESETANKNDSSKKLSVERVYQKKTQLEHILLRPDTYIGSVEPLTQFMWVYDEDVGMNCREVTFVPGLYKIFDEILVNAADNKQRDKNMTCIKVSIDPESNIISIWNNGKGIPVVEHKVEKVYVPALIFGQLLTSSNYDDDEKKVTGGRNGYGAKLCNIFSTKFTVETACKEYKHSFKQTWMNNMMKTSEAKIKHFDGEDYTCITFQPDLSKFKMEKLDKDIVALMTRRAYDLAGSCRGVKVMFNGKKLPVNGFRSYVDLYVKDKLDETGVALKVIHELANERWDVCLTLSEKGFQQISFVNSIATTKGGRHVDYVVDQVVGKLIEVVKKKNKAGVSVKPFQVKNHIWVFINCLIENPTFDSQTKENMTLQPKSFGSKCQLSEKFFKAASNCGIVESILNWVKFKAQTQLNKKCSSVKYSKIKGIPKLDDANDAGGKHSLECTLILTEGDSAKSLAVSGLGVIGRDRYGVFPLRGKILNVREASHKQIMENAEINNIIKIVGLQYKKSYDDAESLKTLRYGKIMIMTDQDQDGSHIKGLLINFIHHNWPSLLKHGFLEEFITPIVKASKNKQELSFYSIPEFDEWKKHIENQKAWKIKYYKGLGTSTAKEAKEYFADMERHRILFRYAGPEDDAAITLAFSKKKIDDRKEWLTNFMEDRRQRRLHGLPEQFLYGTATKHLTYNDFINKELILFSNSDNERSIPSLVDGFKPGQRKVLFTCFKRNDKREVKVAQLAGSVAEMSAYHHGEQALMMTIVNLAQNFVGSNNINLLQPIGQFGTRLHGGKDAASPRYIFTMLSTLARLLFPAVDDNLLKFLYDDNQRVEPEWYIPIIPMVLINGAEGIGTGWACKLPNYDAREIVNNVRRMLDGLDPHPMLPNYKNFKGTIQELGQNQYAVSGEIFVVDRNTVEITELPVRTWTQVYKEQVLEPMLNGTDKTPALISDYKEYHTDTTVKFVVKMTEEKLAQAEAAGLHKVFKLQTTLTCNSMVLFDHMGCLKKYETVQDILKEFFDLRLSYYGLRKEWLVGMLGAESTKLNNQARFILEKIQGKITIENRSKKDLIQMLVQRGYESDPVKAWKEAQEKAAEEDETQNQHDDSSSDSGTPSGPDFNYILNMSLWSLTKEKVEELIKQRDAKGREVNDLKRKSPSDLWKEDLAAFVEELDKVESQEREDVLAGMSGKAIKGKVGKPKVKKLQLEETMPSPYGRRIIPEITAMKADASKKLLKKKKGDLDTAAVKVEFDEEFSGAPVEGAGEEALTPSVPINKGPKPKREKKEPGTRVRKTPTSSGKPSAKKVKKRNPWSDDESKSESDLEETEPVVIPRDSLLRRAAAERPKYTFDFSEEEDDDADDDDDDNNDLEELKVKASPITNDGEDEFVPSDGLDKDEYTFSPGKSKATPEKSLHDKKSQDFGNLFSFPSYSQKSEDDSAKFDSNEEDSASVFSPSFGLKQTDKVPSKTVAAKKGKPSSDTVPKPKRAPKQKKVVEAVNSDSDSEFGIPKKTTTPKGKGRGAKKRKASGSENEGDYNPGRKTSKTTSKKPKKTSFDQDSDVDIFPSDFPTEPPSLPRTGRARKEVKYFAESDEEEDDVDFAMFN

Compound | Topo2β% inhibition [1] [%] | melting point [°C] | IC50 at 48 h [2] [µM] | Topo2β% inhibition [6] [%] | IC50 ([3]; Homo sapiens) [µM] | IC50 ([4]; Homo sapiens, MCF7, 48 h) [µM] | IC50 ([5]; Homo sapiens, Hep3B) [µM] | IC50 ([3]; L-SR cell line, MTT assay) [µM] | IC50 [4, 7] [µM] | IC50 ([5]; Hep3B cell line, MTT assay) [µM]
CC1COc2c(N3CCN(C)CC3)c(F)cc3c(=O)c(C(=O)N4CCCCC4)cn1c23 (centres unmarked) [Compound 13a, 9-Fluoro-3-methyl-10-(4-methylpiperazin-1-yl)-6-((piperidin-1-yl)carbonyl)-2,3-dihydro-7H-[1,4]oxazino[2,3,4-ij]quinolin-7-one] | 68.77 | 238 to 240 | 29.9 ± 1.68 | 69.38 | 3.12 ± 0.19 | 12.1 ± 0.56 | 3.46 ± 0.16 | – | – | –
2-[(9-Fluoro-3-methyl-10-(4-methylpiperazin-1-yl)-7-oxo-2,3-dihydro-7H-[1,4]oxazino[2,3,4-ij]quinoline-6-carbonyl)]-N-(1-(4-methoxyphenyl)ethylidene)hydrazine-1-carbothioamide [Compound 12a] | – | – | – | – | – | – | – | 23.8 ± 1.43 | 45.4 ± 2.1 | 23.6 ± 1.09
CC1COc2c(N3CCN(C)CC3)c(F)cc3c(=O)c(C(=O)N4NC(=O)CC4=O)cn1c23 (centres unmarked) [Compound 8, 9-Fluoro-6-((3,5-dioxopyrazolidine-1-yl)carbonyl)-3-methyl-10-(4-methylpiperazin-1-yl)-2,3-dihydro-7H-[1,4]oxazino[2,3,4-ij]quinolin-7-one] | – | 228 to 230 | – | – | 5.49 ± 0.33 | 3.51 ± 0.16 | 7.69 ± 0.36 | – | – | –
2-[(9-Fluoro-3-methyl-10-(4-methylpiperazin-1-yl)-7-oxo-2,3-dihydro-7H-[1,4]oxazino[2,3,4-ij]quinoline-6-carbonyl)]N-(4-methoxybenzylidene)hydrazine-1-carbothioamide [Compound 11b] | – | – | – | – | – | – | – | 40.3 ± 2.43 | 15.5 ± 0.72 | 14.6 ± 0.67
N-(1-(3,4-Dimethoxyphenyl)ethylidene)-2-[(9-fluoro-3-methyl-10-(4-methylpiperazin-1-yl)-7-oxo-2,3-dihydro-7H-[1,4]oxazino[2,3,4-ij]quinoline-6-carbonyl)]hydrazine-1-carbothioamide [Compound 12b] | – | – | – | – | – | – | – | 34.2 ± 2.06 | 5.21 ± 0.24 | 17.6 ± 0.81
CC1COc2c(N3CCN(C)CC3)c(F)cc3c(=O)c(C(=O)N4CCOCC4)cn1c23 (centres unmarked) [Compound 13b, 9-Fluoro-3-methyl-10-(4-methylpiperazin-1-yl)-6-((morpholin-4-yl)carbonyl)-2,3-dihydro-7H-[1,4]oxazino[2,3,4-ij]quinolin-7-one] | – | 235 to 237 | – | – | 18.3 ± 1.11 | 26.8 ± 1.24 | 11.2 ± 0.52 | – | – | –
N-(4-Chlorobenzylidene)-2-[(9-fluoro-3-methyl-10-(4-methylpiperazin-1-yl)-7-oxo-2,3-dihydro-7H-[1,4]oxazino[2,3,4-ij]quinoline-6-carbonyl)]hydrazine-1-carbothioamide [Compound 11a] | – | – | – | – | – | – | – | 19.9 ± 1.2 | 54.5 ± 2.52 | 80.2 ± 3.71
CC1COc2c(N3CCN(C)CC3)c(F)cc3c(=O)c(C(=O)NNC(N)=S)cn1c23 (centres unmarked) [Compound 10, 2-[(9-Fluoro-3-methyl-10-(4-methylpiperazin-1-yl)-7-oxo-2,3-dihydro-7H-[1,4]oxazino[2,3,4-ij]quinoline-6-carbonyl)]hydrazin-1-carbothioamide] | – | > 300 | – | – | 66 ± 3.98 | 95.4 ± 4.42 | 37.9 ± 1.76 | – | – | –
CC1COc2c(N3CCN(C)CC3)c(F)cc3c(=O)c(C(=O)N4CCN(c5ccccc5)CC4)cn1c23 (centres unmarked) [Compound 13d, 9-Fluoro-3-methyl-10-(4-methylpiperazin-1-yl)-6-((4-phenylpiperazin-1-yl)carbonyl)-2,3-dihydro-7H-[1,4]oxazino[2,3,4-ij]quinolin-7-one] | – | 246 to 248 | – | – | 15.1 ± 0.91 | 9.59 ± 0.44 | 24.5 ± 1.14 | – | – | –
CC1COc2c(N3CCN(C)CC3)c(F)cc3c(=O)c(C(=O)N4CCN(C)CC4)cn1c23 (centres unmarked) [Compound 13c, 9-Fluoro-3-methyl-10-(4-methylpiperazin-1-yl)-6-((4-methylpiperazin-1-yl)carbonyl)-2,3-dihydro-7H-[1,4]oxazino[2,3,4-ij]quinolin-7-one] | 70.93 | 239 to 241 | 24 ± 1.35 | – | 13.6 ± 0.82 | 7.26 ± 0.34 | 1.04 ± 0.05 | – | – | –

Continued, in another order:

Topo2β% inhibition [1] [%] | melting point [°C] | IC50 at 48 h [2] [µM] | Topo2β% inhibition [6] [%] | Compound | IC50 ([3]; Homo sapiens) [µM] | IC50 ([4]; Homo sapiens, MCF7, 48 h) [µM] | IC50 ([5]; Homo sapiens, Hep3B) [µM] | IC50 ([3]; L-SR cell line, MTT assay) [µM] | IC50 [4, 7] [µM] | IC50 ([5]; Hep3B cell line, MTT assay) [µM]
– | > 300 | – | – | CC1COc2c(N3CCN(C)CC3)c(F)cc3c(=O)c(C(=O)NN=C4C(=O)Nc5ccc(Br)cc54)cn1c23 (centres unmarked) [Compound 4b, N′-(5-Bromo-2-oxoindolin-3-ylidene)-9-fluoro-3-methyl-10-(4-methylpiperazin-1-yl)-7-oxo-2,3-dihydro-7H-[1,4]oxazino[2,3,4-ij]quinoline-6-carbohydrazide] | 10.9 ± 0.66 | 5.59 ± 0.26 | 8.79 ± 0.41 | – | – | –
– | > 300 | – | – | CC1COc2c(N3CCN(C)CC3)c(F)cc3c(=O)c(C(=O)NN=C4C(=O)Nc5ccc(Cl)cc54)cn1c23 (centres unmarked) [Compound 4c, N′-(5-Chloro-2-oxoindolin-3-ylidene)-9-fluoro-3-methyl-10-(4 methylpiperazin-1-yl)-7-oxo-2,3-dihydro-7H-[1,4]oxazino[2,3,4-ij]quinoline-6-carbohydrazide] | 4.32 ± 0.26 | 15.8 ± 0.76 | 36.3 ± 1.68 | – | – | –
– | 138 to 140 | – | – | CC1COc2c(N3CCN(C)CC3)c(F)cc3c(=O)c(C(=O)NN4C(=O)c5ccccc5C4=O)cn1c23 (centres unmarked) [Compound 9, 9-Fluoro-3-methyl-10-(4-methylpiperazin-1-yl)-7-oxo-N-(1,3-dioxoisoindolin-2-yl)-2,3-dihydro-7H-[1,4]oxazino[2,3,4-ij]quinoline-6-carboxamide] | 23.4 ± 1.41 | 19.3 ± 0.9 | 42.2 ± 1.96 | – | – | –
– | > 300 | – | – | CC1COc2c(N3CCN(C)CC3)c(F)cc3c(=O)c(C(=O)NN=C4C(=O)Nc5ccccc54)cn1c23 (centres unmarked) [Compound 4a, 9-Fluoro-3-methyl-10-(4-methylpiperazin-1-yl)-7-oxo-N′-(2-oxoindolin-3-ylidene)-2,3-dihydro-7H-[1,4]oxazino[2,3,4-ij]quinoline-6-carbohydrazide] | 49.6 ± 2.99 | 39.1 ± 1.81 | 18.7 ± 0.87 | – | – | –
– | 266 to 268 | – | – | CC1COc2c(N3CCN(C)CC3)c(F)cc3c(=O)c(C(=O)NN=Cc4ccc(F)cc4)cn1c23 (centres unmarked) [Compound 3b, 9-Fluoro-N′-(4-fluorobenzylidene)-3-methyl-10-(4-methylpiperazin-1-yl)-7-oxo-2,3-dihydro-7H-[1,4]oxazino[2,3,4-ij]quinoline-6-carbohydrazide] | 5.64 ± 0.27 | 63 ± 2.8 | 12 ± 0.39 | – | – | –
– | 260 to 262 | – | – | CC1COc2c(N3CCN(C)CC3)c(F)cc3c(=O)c(C(=O)NN=Cc4ccc(Cl)cc4)cn1c23 (centres unmarked) [Compound 3a, N′-(4-Chlorobenzylidene)-9-fluoro-3-methyl-10-(4-methylpiperazin-1-yl)-7-oxo-2,3-dihydro-7H-[1,4]oxazino[2,3,4-ij]quinoline-6-carbohydrazide] | 2.75 ± 0.07 | 24.8 ± 1.61 | 24.7 ± 0.81 | – | – | –

— PMC11369887 (RSC Advances, 2024)
